The values that follow are results of earlier work, collected in paper PMC10035389, “Safety, Tolerability, and Pharmacokinetics of TAK-931, a Cell Division Cycle 7 Inhibitor, in Patients with Advanced Solid Tumors: A Phase I First-in-Human Study” (Cancer Research Communications, 2022).

The test system of the series is patients with advanced solid tumors. The note with it: human, in vivo; cited from earlier work.

SMILES strings stand for the structures.

Regarding `C[C@@]1(c2ncncc2F)NC(=O)c2cc(-c3cn[nH]c3)ccc21` [LY3143921], the “Rate of drug-related orthostatic hypotension” value was 50%.
